Assay results reported in publication PMC8036666, “Biological and Physico-Chemical Characteristics of Arginine-Rich Peptide Gemini Surfactants with Lysine and Cystine Spacers” (International Journal of Molecular Sciences, 2021).
≈ marks a conversion by molar mass, not a printed value. Where “and” joins values, the source holds several entries; their conditions need not be identical. Equal entries are not always repeated. Where a SMILES comes first, the peptide text is derived from it. Side-chain parts run from the residue outwards. [ ]: non-standard residue; d: D form. The star is where a group is joined. Myristoyl = CCCCCCCCCCCCCC(=O)*; Nle = CCCC[C@H](N)C(=O)O; Octanoyl = CCCCCCCC(=O)*

Key:
[1] = test system: Klebsiella aerogenes ATCC 13048; conditions: ATCC 13048, 24 h
Experimental: (§1) The Acinetobacter baumannii ATCC BAA-1605, Enterococcus faecium ATCC 700221, Escherichia coli ML-35 ATCC 43827, Klebsiella aerogenes ATCC 13048, Klebsiella pneumoniae ATCC 700603, Pseudomonas aeruginosa ATCC 9027, Staphylococcus aureus ATCC 25923, Staphylococcus aureus ATCC 33591, Candida albicans ATCC 10231, Candida glabrata ATCC 15126, strains were acquired from the American Type Culture Collection (ATCC). All the strains were stored at −80 °C in Roti-Store cryo vials and before the tests were transferred into fresh Mueller–Hinton broth (MHB, Biocorp, Warsaw, Poland) for bacteria or RPMI-1640 (Sigma-Aldrich, Steinheim, Germany) for fungi and incubated for 24 h at 37 °C. Then, the cultures were seeded on the Mueller–Hinton agar (BioMaxima, Lublin, Poland) or Sabouraud dextrose agar (SDA, BioMaxima, Lublin, Poland) plates, respectively, and incubated as just mentioned. These agar cultures were used for further microbiological assays. Cell densities for all assays were adjusted spectrophotometrically (Multiskan GO Microplate Spectrophotometer, Thermo Fisher Scientific, Vantaa, Finland) at 600 and 530 nm for bacteria and fungi, respectively.
(§2) The MICs were determined by the broth microdilution method according to the Clinical and Laboratory Standard Institute guidelines. […] The experiments were conducted on 96-well microtiter polystyrene plates (Kartell, Noviglio, Italy). The growth was assessed visually after incubation, and the MIC was assumed as the lowest peptide concentration at which a noticeable growth of microorganisms was inhibited. All experiments were conducted in triplicate.

[2] = test system: Pseudomonas aeruginosa ATCC 9027; conditions: ATCC 9027, 24 h
Experimental: as §1, §2

[3] = test system: Staphylococcus aureus ATCC 25923; conditions: ATCC 25923, 24 h
Experimental: as §1, §2

[4] = test system: Acinetobacter baumannii ATCC BAA 1605; conditions: ATCC BAA 1605, 24 h
Experimental: as §1, §2

[5] = test system: Enterococcus faecium ATCC 700221; conditions: ATCC 700221, 24 h
Experimental: as §1, §2

[6] = test system: Klebsiella pneumoniae ATCC 700603; conditions: ATCC 700603, 24 h
Experimental: as §1, §2

C. albicans ATCC 10231 = conditions: ATCC 10231, 24 h
Experimental: as §1
(§3) The MICs were determined by the broth microdilution method according to the Clinical and Laboratory Standard Institute guidelines. For this purpose, initial inoculums of bacteria (5 × 10^5 CFU/mL) in MHB and yeasts (2 × 10^3 CFU/mL) in RPMI-1640 with 2% D-glucose were exposed to the ranging concentration of lipopeptides (0.5–256 μg/mL) and incubated at 37 °C for 18 h and 24 h, respectively. The experiments were conducted on 96-well microtiter polystyrene plates (Kartell, Noviglio, Italy). The growth was assessed visually after incubation, and the MIC was assumed as the lowest peptide concentration at which a noticeable growth of microorganisms was inhibited. All experiments were conducted in triplicate.

C. glabrata ATCC 15126 = conditions: ATCC 15126, 24 h
Experimental: as §1, §3

[7] = Critical aggregation concentration by surface tension (Du Noüy ring, K100 tensiometer); type: physicochemical; conditions: unbuffered aqueous solution, 298 K
Experimental: (§4) The identity of the purified peptides was confirmed with electrospray ionization mass spectrometry (ESI-MS) in positive ion mode. Results of MS analyses and net charge are attached in Supplementary Materials (Table S1). Peptides’ hydrophobicity was evaluated by analytical reversed-phase high-performance liquid chromatography (RP-HPLC). The critical aggregation concentrations (CACs) of the lipopeptides were determined in unbuffered aqueous solution at 298 K by measuring the surface tension as a function of lipopeptide concentration. The measurements were carried out by the Du Noüy ring method on a K100 tensiometer. The surface tension data were plotted against the logarithm of lipopeptide concentration. CAC was found as the intersection of two lines being linear regression of data below and above CAC.
The critical aggregation concentration (CAC) values were determined fully automatically using a K100 tensiometer (KRUSS, Hamburg, Germany) equipped with two micro dosimeters by measuring the surface tension vs. lipopeptide concentration. The measurements were performed in unbuffered aqueous solution at 298 K using the Du Noüy ring method. The accuracy of the surface tension measurements was 0.1 mN/m. The critical aggregation concentration (CAC) was defined as the intersection of two lines fitted to the experimental data collected before and after the inflection point.

[8] = Lipopeptide hydrophobicity by RP-HPLC (adjusted retention time); type: physicochemical; conditions: RP-HPLC, 20–65% acetonitrile over 30 min, indicator of hydrophobicity
Experimental: as §4
Lipopeptide hydrophobicity was determined as described previously. To do this, a Waters Alliance e2695 system with a Waters 2998 PDA Detector (software-Empower 3, Waters, Milford, MA, USA) was used. All analyses were carried out on a Waters X-Bridge Shield RP-18 column (3.0 × 100 mm, 3.5 μm particle size, 130 Å pore size). The Shield Technology column with embedded polar groups was used to minimize interactions of unreacted silanol groups with basic lipopeptides. The peptides were dissolved in water (0.1% TFA, v/v) up to a concentration of 1 mg/mL. UV detection at 214 nm was used, and samples (10 μL) were eluted with a linear 20–65% acetonitrile gradient in deionized water over 30 min at 25.0 ± 0.1 °C. The mobile phase flow rate was 0.5 mL/min. Both eluents contained 0.1% (v/v) of TFA. Each peptide sample was analyzed in triplicate. The maximum standard deviation and coefficient of variation were 0.044 and 0.85%, respectively.

MIC Klebsiella aerogenes ATCC 13048 [1] | MIC Pseudomonas aeruginosa ATCC 9027 [2] [µg/mL] | MIC Staphylococcus aureus ATCC 25923 [3] [µg/mL] | MIC Acinetobacter baumannii ATCC BAA 1605 [4] [µg/mL] | MIC Enterococcus faecium ATCC 700221 [5] [µg/mL] | MIC Klebsiella pneumoniae ATCC 700603 [6] [µg/mL] | MIC C. albicans ATCC 10231 (C. albicans ATCC 10231) [µg/mL] | MIC C. glabrata ATCC 15126 (C. glabrata ATCC 15126) [µg/mL] | CAC [7] | Surface Tension at CAC [7] [mN/m] | Adjusted Retention Time [8] [min] | Structure (SMILES)
32 µg/mL (≈ 26.9 µM) | 32 (≈ 26.9 µM) | 64 (≈ 53.8 µM) | 64 (≈ 53.8 µM) | 8 (≈ 6.72 µM) | 32 (≈ 26.9 µM) | 4 (≈ 3.36 µM) | 2 (≈ 1.68 µM) | 0.31 mM and 365.7 μg/mL | 40 | 25.33 | CCCCCCCCCCCCCC(=O)N[C@@H](CCCNC(=N)N)C(=O)N[C@@H](CCCNC(=N)N)C(=O)NCCCC[C@H](NC(=O)[C@H](CCCNC(=N)N)NC(=O)[C@H](CCCNC(=N)N)NC(=O)CCCCCCCCCCCCC)C(N)=O [Compound B4] (Myristoyl-Arg-Arg-Lys([Arg-Arg-Myristoyl])-NH2)
256 (−/−) µg/mL | 8 (≈ 6.08 µM) | 2 (≈ 1.52 µM) | 32 (≈ 24.3 µM) | 4 (≈ 3.04 µM) | 128 (≈ 97.2 µM) | 16 (≈ 12.2 µM) | 16 (≈ 12.2 µM) | 2.47 mM and 3247.9 μg/mL | 39 | 15.19 | CCCCCCCC(=O)N[C@@H](Cc1ccccc1)C(=O)N[C@@H](CCCNC(=N)N)C(=O)N[C@@H](CCCNC(=N)N)C(=O)NCCCC[C@H](NC(=O)[C@H](CCCNC(=N)N)NC(=O)[C@H](CCCNC(=N)N)NC(=O)[C@H](Cc1ccccc1)NC(=O)CCCCCCC)C(N)=O [Compound B5] (Octanoyl-FRRK([Arg-Arg-Phe-Octanoyl])-NH2)
256 (−/−) µg/mL | 4 (≈ 3.2 µM) | 2 (≈ 1.6 µM) | 32 (≈ 25.6 µM) | 2 (≈ 1.6 µM) | 64 (≈ 51.3 µM) | 16 (≈ 12.8 µM) | 16 (≈ 12.8 µM) | 3.59 mM and 4482.4 μg/mL | 37 | 13.96 | CCCCCCCC(=O)N[C@@H](CCCC)C(=O)N[C@@H](CCCNC(=N)N)C(=O)N[C@@H](CCCNC(=N)N)C(=O)NCCCC[C@H](NC(=O)[C@H](CCCNC(=N)N)NC(=O)[C@H](CCCNC(=N)N)NC(=O)[C@H](CCCC)NC(=O)CCCCCCC)C(N)=O [Compound B6] (Octanoyl-[Nle]RRK([Arg-Arg-Nle-Octanoyl])-NH2)
